The compounds below were run against T1, hVR1 (Homo sapiens, UniProt Q8NER1) (assay: hVR1 FLIPR (Fluorometric Image Plate Reader) screening assay, IC50 determination). Conditions: transfected CHO cells stably expressing hVR1; Fluo-4 calcium signal; agonist 50 nM capsaicin or MES buffer pH 5.2.
T1 construct: expressed in transfected cells; host or cells: CHO cells, stably transfected
Assay type: cell-based
Procedure: 1. hVR1 FLIPR (Fluorometric Image Plate Reader) Screening Assay
Transfected CHO cells, stably expressing hVR1 (15,000 cells/well) are seeded in 50 μL media in a black clear bottom 384 plate (Greiner) and grown in a humidified incubator (37° C., 2% CO2), 24-30 hours prior to experiment.
Subsequently, the media is removed from the cell plate by inversion and 2 μM Fluo-4 is added using a multidrop (Labsystems). Following the 40 min dye incubation in the dark at 37° C. and 2% CO2, the extracellular dye present is washed away using an EMBLA (Scatron), leaving the cells in 40 μL of assay buffer (1×HBSS, 10 mM D-Glucose, 1 mM CaCl2, 10 mM HEPES, 10×7.5% NaHCO3 and 2.5 mM Probenecid).
FLIPR Assay—IC50 Determination Protocol
For IC50 determinations the fluorescence is read using FLIPR filter 1 (em […]). A cellular baseline recording is taken for 30 seconds, followed by a 20 μL addition of 10, titrated half-log concentrations of the test compound, yielding cellular concentration ranging from 3 μM to 0.1 nM. Data is collected every 2 seconds for a further 5 min prior to the addition of a VR1 agonist solution: either 50 nM solution of capsaicin or MES (2-[N-morpholino]ethanesulfonic acid) buffer (pH 5.2), by the FLIPR pipettor. The FLIPR continues to collect data for a further 4 min. Compounds having antagonistic properties against the hVR1 will inhibit the increase in intracellular calcium in response to the capsaicin addition. This consequently leading to a reduction in fluorescence signal and providing a reduced fluorescence reading, compared with no compound, buffer controls. Data is exported by the FLIPR program as a sum of fluorescence calculated under the curve upon the addition of capsaicin. Maximum inhibition, Hill slope and IC50 data for each compound are generated.

T1 sequence (Q8NER1 whole entry): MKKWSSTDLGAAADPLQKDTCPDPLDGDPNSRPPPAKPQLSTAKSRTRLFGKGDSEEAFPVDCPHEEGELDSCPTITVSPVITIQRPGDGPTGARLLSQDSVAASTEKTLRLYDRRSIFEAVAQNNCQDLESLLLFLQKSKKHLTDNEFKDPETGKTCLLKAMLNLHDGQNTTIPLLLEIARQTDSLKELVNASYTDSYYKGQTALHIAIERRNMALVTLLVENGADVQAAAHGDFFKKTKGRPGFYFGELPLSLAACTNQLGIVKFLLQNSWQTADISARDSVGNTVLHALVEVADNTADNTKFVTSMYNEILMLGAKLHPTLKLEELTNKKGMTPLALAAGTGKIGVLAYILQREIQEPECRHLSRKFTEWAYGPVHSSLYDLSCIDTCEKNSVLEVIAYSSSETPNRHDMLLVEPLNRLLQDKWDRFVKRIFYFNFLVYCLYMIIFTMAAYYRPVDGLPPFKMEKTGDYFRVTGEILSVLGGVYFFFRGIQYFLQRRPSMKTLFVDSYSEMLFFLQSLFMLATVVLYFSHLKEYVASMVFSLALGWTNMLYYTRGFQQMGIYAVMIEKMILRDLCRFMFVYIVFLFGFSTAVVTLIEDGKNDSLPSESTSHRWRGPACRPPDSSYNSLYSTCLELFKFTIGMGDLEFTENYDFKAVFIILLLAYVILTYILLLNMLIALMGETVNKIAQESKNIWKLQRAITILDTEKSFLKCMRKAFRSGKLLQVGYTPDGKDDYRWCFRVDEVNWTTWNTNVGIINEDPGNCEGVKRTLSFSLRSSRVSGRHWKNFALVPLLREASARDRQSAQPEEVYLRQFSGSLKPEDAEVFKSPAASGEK

IC50	Structure (SMILES)
3 µM	O=C1NC(=O)C2(N1)C(=O)N(C/C=C/c1ccc(Cl)c(Cl)c1)c1ccc(OC(F)(F)F)cc12 (stereo not drawn) [Compound 3]
2.11 µM	CN1C(=O)N(C)C2(C1=O)C(=O)N(C/C=C/c1ccc(Cl)c(Cl)c1)c1ccccc12 (stereo not drawn) [Compound 5, 1′-[(2E)-3-(3,4-dichlorophenyl)prop-2-en-1-yl]-1,3-dimethyl-2H,5H-spiro[imidazolidine-4,3′-indole]-2,2′,5(1′H)-trione]
3.01 µM	COCCN1C(=O)N(CCOC)C2(C1=O)C(=O)N(C/C=C/c1ccc(Cl)c(Cl)c1)c1ccccc12 (stereo not drawn) [Compound 7, 1′-[(2E)-3-(3,4-dichlorophenyl)prop-2-en-1-yl]-1,3-bis(2-methoxyethyl)-2H,5H-spiro[imidazolidine-4,3′-indole]-2,2′,5(1′H)-trione]

From patent US20090076049A1, “Novel Spiro [Imidazolidine-4, 3' -Indole] 2, 2', 5' (1H) Triones for Treatment of Conditions Associated with Vanilloid Receptor 1” (AstraZeneca AB, priority 2006, published 2009)
